We go through 20 compounds from patent publication US9409892B2, “4-hydroxy-isoquinoline compounds as HIF hydroxylase inhibitors” (FIBROGEN, INC., priority 2012, dated 2016).

The term IC50 denotes the concentration that gives 50% inhibition.

Assay [1] deals with PHD1 (EGLN2) (Homo sapiens (Human), UniProt Q96KS0). The assay can be described thus: HIF-PH assay (14CO2 capture), PHD1 enzyme inhibition. Type of assay: biochemical. The settings on record: Table 1; for PHD2/PHD1: ratio of the IC50 of the compound for each enzyme.
For assay [2], the target named is PHD2 (EGLN1) (Homo sapiens (Human), UniProt Q9GZT9). The experiment in a line: HIF-PH assay (14CO2 capture), PHD2 enzyme inhibition. Type of assay: biochemical. The settings on record: Table 1.
[3] abbreviates: individual measurement, read-out: IC50 (μM) PHD1.
Where [4] appears, read: individual measurement, read-out: IC50 (μM) PHD2.

Molecules are shown by their SMILES. “And” between values parts separate entries of the source, which are not always exact repeats. Equal entries are not always repeated. Where two headings read alike, the source gives them in different places.

Sequence of PHD1 (EGLN2) (Q96KS0 whole entry): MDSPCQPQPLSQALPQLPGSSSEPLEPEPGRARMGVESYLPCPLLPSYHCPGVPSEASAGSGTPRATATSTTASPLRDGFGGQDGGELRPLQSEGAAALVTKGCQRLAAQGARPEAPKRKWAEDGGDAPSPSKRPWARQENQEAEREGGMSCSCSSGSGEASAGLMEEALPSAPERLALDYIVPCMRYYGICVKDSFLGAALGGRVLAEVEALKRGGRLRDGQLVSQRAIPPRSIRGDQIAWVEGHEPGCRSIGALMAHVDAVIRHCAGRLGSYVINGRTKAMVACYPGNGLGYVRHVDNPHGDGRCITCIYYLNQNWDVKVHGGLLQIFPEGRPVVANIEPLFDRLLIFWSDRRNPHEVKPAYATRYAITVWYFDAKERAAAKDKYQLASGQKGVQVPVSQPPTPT
Sequence of PHD2 (EGLN1) (Q9GZT9 whole entry): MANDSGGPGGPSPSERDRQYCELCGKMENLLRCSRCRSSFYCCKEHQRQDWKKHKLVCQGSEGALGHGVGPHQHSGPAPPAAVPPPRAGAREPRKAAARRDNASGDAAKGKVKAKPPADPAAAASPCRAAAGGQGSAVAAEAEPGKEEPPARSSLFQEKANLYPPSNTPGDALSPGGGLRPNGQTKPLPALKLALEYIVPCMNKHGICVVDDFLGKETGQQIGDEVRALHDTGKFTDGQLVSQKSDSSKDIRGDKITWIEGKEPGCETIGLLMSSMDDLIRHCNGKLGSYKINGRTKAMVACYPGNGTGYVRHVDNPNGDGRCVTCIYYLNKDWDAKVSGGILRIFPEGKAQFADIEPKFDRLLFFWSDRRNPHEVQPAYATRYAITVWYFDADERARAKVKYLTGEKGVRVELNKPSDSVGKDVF

Turning to `COc1ccc(Oc2ccc3c(O)c(C(=O)NCC(C)(C)C(=O)O)nc(C#N)c3c2)cc1` [Compound 20, 3{-[1-Cyano-4-hydroxy-7-(4-methoxy-phenoxy)-isoquinoline-3-carbonyl]-amino}-2,2-dimethyl-propionic acid], the figures for the IC50 in assay [1] (setting [3]) and in assay [2] (setting [4]) were 0.35 µM and 5.22 µM, respectively. Moreover, the PHD2/PHD1 in assay [1] is listed as 15.

`O=C(NCC(C(=O)O)c1ccccc1)c1ncc2cc(Oc3ccccc3)ccc2c1O` (centres unmarked) [Compound 169, 3-[(4-Hydroxy-7-phenoxy-isoquinoline-3-carbonyl)-amino]-2-phenyl-propionic acid]: the results for the IC50 in assay [1] (setting [3]) and in assay [2] (setting [4]) were 26.6 µM and 153 µM, respectively. For the same compound, the PHD2/PHD1 in assay [1] stood at 6.

On to `N#Cc1nc(C(=O)NCC2(C(=O)O)CCOCC2)c(O)c2ccc(Oc3ccccc3)cc12` [Compound 16, 4-{[(1-Cyano-4-hydroxy-7-phenoxy-isoquinoline-3-carbonyl)-amino]-methyl}-tetrahydro-pyran-4-carboxylic acid], for which the IC50 in assay [1] (setting [3]) worked out at 1.89 µM; in assay [2] (setting [4]), 24.3 µM. Moreover, in assay [1], the PHD2/PHD1 came out at 13.

On to `CCCC(CNC(=O)c1nc(C#N)c2cc(Oc3ccccc3)ccc2c1O)C(=O)O` (centres unmarked) [Compound 17, 2-{[(1-Cyano-4-hydroxy-7-phenoxy-isoquinoline-3-carbonyl)-amino]-methyl}-pentanoic acid], for which the IC50 turned out to be 3.39 µM in assay [1] (setting [3]) and 47.9 µM in assay [2] (setting [4]). Also, the PHD2/PHD1 in assay [1] stood at 14.

For the compound `O=C(O)CCNC(=O)c1ncc2cc(NC(=O)c3ccc(F)cc3)ccc2c1O` [Compound 118, 3-{[7-(4-Fluoro-benzoylamino)-4-hydroxy-isoquinoline-3-carbonyl]-amino}-propionic acid], the results for the IC50 in assay [1] (setting [3]) and in assay [2] (setting [4]) were 6.45 µM and 113 µM, respectively. Further, the PHD2/PHD1 in assay [1] is listed as 18.

With `N#Cc1nc(C(=O)N[C@H](Cc2ccccc2)[C@@H](O)C(=O)O)c(O)c2ccc(Oc3ccccc3)cc12` [Compound 75, (2R,3R)-3-(1-Cyano-4-hydroxy-7-phenoxyisoquinoline-3-carboxamido)-2-hydroxy-4-phenylbutanoic acid], the IC50 in assay [1] (setting [3]) was 1.17 µM; in assay [2] (setting [4]) it was 18.9 µM. Moreover, the PHD2/PHD1 in assay [1] turned out to be 16.

For the compound `N#Cc1nc(C(=O)NCC[C@H](N)C(=O)O)c(O)c2ccc(Oc3ccccc3)cc12` [Compound 45, (S)-2-Amino-4-(1-cyano-4-hydroxy-7-phenoxyisoquinoline-3-carboxamido)butanoic acid], the IC50 in assay [1] (setting [3]) was 1.41 µM; in assay [2] (setting [4]) it was 36.7 µM. Besides, in assay [1], the PHD2/PHD1 turned out to be 26.

On to `N#Cc1nc(C(=O)NCC(C(=O)O)C2CC2)c(O)c2ccc(Oc3c(F)cccc3F)cc12` (centres unmarked) [Compound 180, 3{-[1-Cyano-7-(2,6-difluoro-phenoxy)-4-hydroxy-isoquinoline-3-carbonyl]-amino}-2-cyclopropyl-propionic acid], for which the IC50 in assay [1] (setting [3]) stood at 4.57 µM; in assay [2] (setting [4]) it was 28.9 µM. Also, in assay [1], the PHD2/PHD1 came out at 6.

Regarding `O=C(O)CCCCNC(=O)c1ncc2cc(Oc3c(F)cccc3F)ccc2c1O` [Compound 100, 5-{[7-(2,6-Difluoro-phenoxy)-4-hydroxy-isoquinoline-3-carbonyl]-amino}-pentanoic acid], the figures for the IC50 in assay [1] (setting [3]) and in assay [2] (setting [4]) were 23.1 µM and 200 µM, respectively. Also, the PHD2/PHD1 in assay [1] was determined as 9.

Consider `C[C@H](C(=O)O)[C@@H](C)NC(=O)c1nc(C#N)c2cc(Oc3ccccc3)ccc2c1O` [Compound 70, (2S,3R)-3-[(1-Cyano-4-hydroxy-7-phenoxy-isoquinoline-3-carbonyl)-amino]-2-methyl-butyric acid], for which the IC50 in assay [1] (setting [3]) amounted to 1.86 µM; in assay [2] (setting [4]), 65.8 µM. The PHD2/PHD1 in assay [1] worked out at 35.

Turning to `N#Cc1nc(C(=O)N[C@H]2CC[C@H](C(=O)O)CC2)c(O)c2ccc(Oc3ccccc3)cc12` [Compound 88, trans-4-[(1-Cyano-4-hydroxy-7-phenoxy-isoquinoline-3-carbonyl)-amino]-cyclohexanecarboxylic acid], the IC50 in assay [1] (setting [3]) came out at 14.1 µM; in assay [2] (setting [4]) it was 93.3 µM. For the same compound, the PHD2/PHD1 in assay [1] was found to be 7.

For `N#Cc1nc(C(=O)NCC(C(=O)O)C2CC2)c(O)c2ccc(Oc3ccccc3F)cc12` (centres unmarked) [Compound 177, 3{-[1-Cyano-7-(2-fluoro-phenoxy)-4-hydroxy-isoquinoline-3-carbonyl]-amino}-2-cyclopropyl-propionic acid], the values for the IC50 in assay [1] (setting [3]) and in assay [2] (setting [4]) were 0.75 µM and 10.5 µM, respectively. The PHD2/PHD1 in assay [1] was 14.

Take `CC(C)(CNC(=O)c1nc(C#N)c2cc(-c3ccccc3)ccc2c1O)C(=O)O` [Compound 138, 3-[(1-Cyano-4-hydroxy-7-phenyl-isoquinoline-3-carbonyl)-amino]-2,2-dimethyl-propionic acid]: the IC50 in assay [1] (setting [3]) was 1.13 µM; in assay [2] (setting [4]) it was 24.1 µM. In addition, in assay [1], the PHD2/PHD1 was 21.

For `COc1ccccc1Oc1ccc2c(O)c(C(=O)NCC(C)(C)C(=O)O)nc(C#N)c2c1` [Compound 60, 3{-[1-Cyano-4-hydroxy-7-(2-methoxy-phenoxy)-isoquinoline-3-carbonyl]-amino}-2,2-dimethyl-propionic acid], the concentration for half-maximal inhibition (IC50) in assay [1] (average of multiple independent measurements, read-out: IC50 (μM) PHD1 avg.) was 1.04 µM; in assay [1] (setting [3]), 1 µM and 1.08 µM; in assay [2] (average of multiple independent measurements, read-out: IC50 (μM) PHD2 avg.), 7.23 µM; in assay [2] (setting [4]), 3.65 µM and 10.8 µM. Besides, the PHD2/PHD1 avg. in assay [1] (average of the ratios of multiple independent measurements) was determined as 6.8 avg.

For `CC(=O)N[C@H](CCNC(=O)c1nc(C#N)c2cc(Oc3ccccc3)ccc2c1O)C(=O)O` [Compound 51, (R)-2-Acetylamino-4-[(1-cyano-4-hydroxy-7-phenoxy-isoquinoline-3-carbonyl)-amino]-butyric acid], the IC50 in assay [1] (setting [3]) amounted to 0.28 µM; in assay [2] (setting [4]) it was 2.1 µM. For the same compound, the PHD2/PHD1 in assay [1] turned out to be 7.5.

Take `N#Cc1nc(C(=O)N[C@H]2CCC[C@H]2C(=O)O)c(O)c2ccc(Oc3ccccc3)cc12` (relative stereo) [Compound 33, cis-2-[(1-Cyano-4-hydroxy-7-phenoxy-isoquinoline-3-carbonyl)-amino]-cyclopentanecarboxylic acid]: the IC50 was determined as 16.9 µM in assay [1] (setting [3]) and 94.8 µM in assay [2] (setting [4]). Further, the PHD2/PHD1 in assay [1] is 6.

In the case of `CC(C)(CCNC(=O)c1ncc2cc(Oc3ccccc3)ccc2c1O)C(=O)O` [Compound 8, 4-[(4-Hydroxy-7-phenoxy-isoquinoline-3-carbonyl)-amino]-2,2-dimethyl-butyric acid], the IC50 in assay [1] (setting [3]) turned out to be 11.6 µM; in assay [2] (setting [4]) it was 119 µM. The PHD2/PHD1 in assay [1] worked out at 10.

As for `CC(C)(CC(=O)O)NC(=O)c1nc(C#N)c2cc(OCc3ccccc3)ccc2c1O` [Compound 152, 3-[(7-Benzyloxy-1-cyano-4-hydroxy-isoquinoline-3-carbonyl)-amino]-3-methyl-butyric acid], the results for the IC50 in assay [1] (setting [3]) and in assay [2] (setting [4]) were 4.35 µM and 55.1 µM, respectively. In addition, in assay [1], the PHD2/PHD1 is recorded as 13.

Take `N#Cc1nc(C(=O)NCC(CC(=O)O)c2ccc(Cl)cc2)c(O)c2ccc(Oc3ccccc3)cc12` (centres unmarked) [Compound 34, 3-(4-Chloro-phenyl)-4-[(1-cyano-4-hydroxy-7-phenoxy-isoquinoline-3-carbonyl)-amino]-butyric acid]: the IC50 came out at 2.55 µM in assay [1] (setting [3]) and 30.9 µM in assay [2] (setting [4]). The PHD2/PHD1 in assay [1] was determined as 12.

As to `COc1ccc(Oc2ccc3c(O)c(C(=O)NC(C)(C)CC(=O)O)nc(C#N)c3c2)cc1` [Compound 21, 3{-[1-Cyano-4-hydroxy-7-(4-methoxy-phenoxy)-isoquinoline-3-carbonyl]-amino}-3-methyl-butyric acid], the half-maximal inhibitory concentration (IC50) is 0.24 µM in assay [1] (setting [3]) and 9.4 µM in assay [2] (setting [4]). Further, the PHD2/PHD1 in assay [1] stood at 39.
